The structures appear in SMILES notation.

The target in series [1] is T1, delta opioid receptor, mouse vas deferens (MVD)(δ) (Mus musculus, UniProt P32300).
T1 construct: tissue Charles River; host or cells: isolated mouse vas deferens (DC1 strain)
The experiment in a line: delta opioid agonist activity in mouse vas deferens (inhibition of electrically-induced contractions). As to conditions: isolated mouse vas deferens; inhibition of electrically-induced contractions in the presence of 300 nM mu-selective antagonist CTOP; measure of δ agonism. On the procedure:
Opioid (delta, mu and kappa) activity was studied in two isolated tissues, the mouse vas deferens (MVD)(δ) and the guinea-pig myentric plexus with attached longitudinal muscle (GPMP)(μ and κ).
MVD (DC1 strain, Charles River, 25-35 g) were suspended in 15 ml organ baths containing Mg^++-free Krebs' buffer of the following composition (mM): NaCl, 119; KCl, 4.7; NaHCO3, 25; KH2PO4, 1.2; CaCl2, 2,5 and glucose, 11. The buffer was gassed with 95% O2 and 5% CO2. The tissues were suspended between platinum electrodes, attached to an isometric transducer with 500 mg tension and stimulated with 0.03 Hz pulses of 1-msec pulse-width at supramaxinal voltage. IC50 values were determined by the regression analysis of concentration-response curves for inhibition of electrically-induced contractions in the presence of 300 nM of the mu-selective antagonist CTOP. This test is a measure of δ agonism.
The delta opioid agonist activity of a number of compounds were determined in mouse vas deferens (as described above) with the following results: […]

T1 sequence (P32300 whole entry): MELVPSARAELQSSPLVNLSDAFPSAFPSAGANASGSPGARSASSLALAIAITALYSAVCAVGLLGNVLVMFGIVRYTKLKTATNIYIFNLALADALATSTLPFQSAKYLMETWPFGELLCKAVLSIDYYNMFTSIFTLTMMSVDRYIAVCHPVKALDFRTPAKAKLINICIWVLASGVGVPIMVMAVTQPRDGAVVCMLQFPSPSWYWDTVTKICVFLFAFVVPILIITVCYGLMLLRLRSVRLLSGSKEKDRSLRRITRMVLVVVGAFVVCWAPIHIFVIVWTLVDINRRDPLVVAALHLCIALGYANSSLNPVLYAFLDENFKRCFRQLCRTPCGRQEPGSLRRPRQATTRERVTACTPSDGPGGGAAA

`C=CCN1C[C@H](C)N([C@H](c2ccc(-c3nnn(CCOCC(=O)O)n3)cc2)c2cccc(O)c2)C[C@H]1C` came in with a melting point of 137 to 140 °C.
Turning to `C=CCN1C[C@H](C)N([C@H](c2ccc(-c3nnn[nH]3)cc2)c2cccc(O)c2)C[C@H]1C` [Example 1, (+)-5-{4-[(R)-α-(2(S),5(R)-4-Allyl-2,5-dimethyl-1-piperazinyl)-3-hydroxybenzyl]phenyl}-1H-tetrazole], the half-maximal inhibitory concentration (IC50) in series [1] is 0.2 nM.
The same measure, in the same setting: the result for `C[C@@H]1CN([C@H](c2ccc(-c3nnn[nH]3)cc2)c2cccc(O)c2)[C@@H](C)CN1Cc1ccccc1` [Example 4, (−)-5-{4-[(R)-α-(2(S),5(R)-4-benzyl-2,5-dimethyl-1-piperazinyl)-3-hydroxybenzyl]phenyl}-1H-tetrazole] reads 0.0126 nM; that for `C=CCN1C[C@H](C)N([C@H](c2ccc(-c3nnn(CCCCC(=O)O)n3)cc2)c2cccc(O)c2)C[C@H]1C` [Example 42, (+)-5-(5-{4-[(R)-α-(2(S),5(R)-4-Allyl-2,5-dimethyl-1-piperazinyl)-3-hydroxybenzyl]phenyl}-2-tetrazolyl)valeric Acid], 0.316 nM.

A word on the melting point: it is the temperature of the solid-liquid transition. As a reminder, the IC50 is the point on the concentration scale where inhibition reaches its midpoint.
